Key:
Rattus norvegicus [1] = assay: Antiinflammatory activity against carrageenan-induced paw edema in Wister albino rat assessed as inhibition of edema at 50 mg/kg, ip administered 1 hr prior to carrageenan challenge measured after 4 hrs relative to control; format: functional; details: route intraperitoneal
SF-539 = assay: Growth inhibition of human SF539 cells at 10 uM after 48 hrs by sulforhodamine B assay; format: functional; details: SF-539, 48 h, values are per cent of control
T47D = assay: Growth inhibition of human T47D cells at 10 uM after 48 hrs by sulforhodamine B assay; format: functional; details: values are per cent of control
UO-31 = assay: Growth inhibition of human UO31 cells at 10 uM after 48 hrs by sulforhodamine B assay; format: functional; details: UO-31, 48 h, values are per cent of control
A498 = assay: Growth inhibition of human A498 cells at 10 uM after 48 hrs by sulforhodamine B assay; format: functional; details: A498, 48 h, values are per cent of control
RPMI-8226 = assay: Growth inhibition of human RPMI8226 cells at 10 uM after 48 hrs by sulforhodamine B assay; format: functional; details: RPMI-8226, 48 h, read-out: GI
SK-OV-3 = assay: Growth inhibition of human SKOV3 cells at 10 uM after 48 hrs by sulforhodamine B assay; format: functional; details: SK-OV-3, 48 h, values are per cent of control
HOP-62 = assay: Growth inhibition of human HOP62 cells at 10 uM after 48 hrs by sulforhodamine B assay; format: functional; details: HOP-62, 48 h, values are per cent of control
CCRF-CEM = assay: Growth inhibition of human CCRF-CEM cells at 10 uM after 48 hrs by sulforhodamine B assay; format: functional; details: values are per cent of control
TK-10 = assay: Growth inhibition of human TK10 cells at 10 uM after 48 hrs by sulforhodamine B assay; values are per cent of control; details: TK-10, 48 h
NCI-H322M = assay: Growth inhibition of human NCI-H322M cells at 10 uM after 48 hrs by sulforhodamine B assay; format: functional; details: values are per cent of control
Rattus norvegicus [2] = assay: Antiinflammatory activity against carrageenan-induced paw edema in Wister albino rat assessed as inhibition of edema at 50 mg/kg, ip administered 1 hr prior to carrageenan challenge measured after 1 hr relative to control; format: functional; details: route intraperitoneal
MDA-MB-231 = assay: Growth inhibition of human MDA-MB-231 cells at 10 uM after 48 hrs by sulforhodamine B assay; format: functional; details: MDA-MB-231, 48 h, values are per cent of control
NCI-H460 = assay: Growth inhibition of human NCI-H460 cells at 10 uM after 48 hrs by sulforhodamine B assay; format: functional; details: NCI-H460, 48 h, values are per cent of control
M14 = assay: Growth inhibition of human M14 cells at 10 uM after 48 hrs by sulforhodamine B assay; format: functional; details: M14, 48 h, values are per cent of control
K562 = assay: Growth inhibition of human K562 cells at 10 uM after 48 hrs by sulforhodamine B assay; format: functional; details: K562, 48 h, values are per cent of control
LOX IMVI = assay: Growth inhibition of human LOXIMVI cells at 10 uM after 48 hrs by sulforhodamine B assay; format: functional; details: values are per cent of control
Malme-3M = assay: Growth inhibition of human MALME-3M cells at 10 uM after 48 hrs by sulforhodamine B assay; format: functional; details: values are per cent of control
Rattus norvegicus [3] = assay: Antiinflammatory activity against carrageenan-induced paw edema in Wister albino rat assessed as inhibition of edema at 50 mg/kg, ip administered 1 hr prior to carrageenan challenge measured after 2 hrs relative to control; format: functional; details: route intraperitoneal
U-251 = assay: Growth inhibition of human U251 cells at 10 uM after 48 hrs by sulforhodamine B assay; format: functional; details: U-251, 48 h, values are per cent of control
OVCAR-4 = assay: Growth inhibition of human OVCAR4 cells at 10 uM after 48 hrs by sulforhodamine B assay; format: functional; details: OVCAR-4, 48 h, values are per cent of control
UACC-257 = assay: Growth inhibition of human UACC257 cells at 10 uM after 48 hrs by sulforhodamine B assay; format: functional; details: UACC-257, 48 h, values are per cent of control
[4] = Growth inhibition of human Hs 578T cells at 10 uM after 48 hrs by sulforhodamine B assay; format: functional; details: values are per cent of control
MOLT-4 = assay: Growth inhibition of human MOLT4 cells at 10 uM after 48 hrs by sulforhodamine B assay; format: functional; details: MOLT-4, 48 h, values are per cent of control
SF-295 = assay: Growth inhibition of human SF295 cells at 10 uM after 48 hrs by sulforhodamine B assay; format: functional; details: SF-295, 48 h, values are per cent of control
MDA-MB-435 = assay: Growth inhibition of human MDA-MB-435 cells at 10 uM after 48 hrs by sulforhodamine B assay; format: functional; details: MDA-MB-435, 48 h, values are per cent of control
EKVX = assay: Growth inhibition of human EKVX cells at 10 uM after 48 hrs by sulforhodamine B assay; format: functional; details: values are per cent of control
HT-29 = assay: Growth inhibition of human HT-29 cells at 10 uM after 48 hrs by sulforhodamine B assay; format: functional; details: HT-29, 48 h, values are per cent of control
COLO 205 = assay: Growth inhibition of human COLO205 cells at 10 uM after 48 hrs by sulforhodamine B assay; format: functional; details: COLO 205, 48 h, values are per cent of control
KM12 = assay: Growth inhibition of human KM12 cells at 10 uM after 48 hrs by sulforhodamine B assay; format: functional; details: KM12, 48 h, values are per cent of control
786-0 = assay: Growth inhibition of human 786-0 cells at 10 uM after 48 hrs by sulforhodamine B assay; format: functional; details: 786-0, 48 h, values are per cent of control
SN12C = assay: Growth inhibition of human SN12C cells at 10 uM after 48 hrs by sulforhodamine B assay; format: functional; details: values are per cent of control
OVCAR-5 = assay: Growth inhibition of human OVCAR5 cells at 10 uM after 48 hrs by sulforhodamine B assay; format: functional; details: OVCAR-5, 48 h, values are per cent of control
HOP-92 = assay: Growth inhibition of human HOP92 cells at 10 uM after 48 hrs by sulforhodamine B assay; format: functional; details: HOP-92, 48 h, read-out: GI
NCI-H226 = assay: Growth inhibition of human NCI-H226 cells at 10 uM after 48 hrs by sulforhodamine B assay; format: functional; details: NCI-H226, 48 h, values are per cent of control
Rattus norvegicus [5] = assay: Antiinflammatory activity against carrageenan-induced paw edema in Wister albino rat assessed as inhibition of edema at 50 mg/kg, ip administered 1 hr prior to carrageenan challenge measured after 3 hrs relative to control; format: functional; details: route intraperitoneal
SW-620 = assay: Growth inhibition of human SW620 cells at 10 uM after 48 hrs by sulforhodamine B assay; format: functional; details: SW-620, 48 h, values are per cent of control
HCC 2998 = assay: Growth inhibition of human HCC2998 cells at 10 uM after 48 hrs by sulforhodamine B assay; format: functional; details: HCC 2998, 48 h, values are per cent of control

Compound	inhibition in vivo at 50 mg/kg (Rattus norvegicus [1])	growth, % of control at 10 µM (SF-539)	growth, % of control at 10 µM (T47D)	growth, % of control at 10 µM (UO-31)	growth, % of control at 10 µM (A498)	inhibition of growth at 10 µM (RPMI-8226)	growth, % of control at 10 µM (SK-OV-3)	growth, % of control at 10 µM (HOP-62)	growth, % of control at 10 µM (CCRF-CEM)	growth, % of control at 10 µM (TK-10)	growth, % of control at 10 µM (NCI-H322M)	inhibition in vivo at 50 mg/kg (Rattus norvegicus [2])	growth, % of control at 10 µM (MDA-MB-231)	growth, % of control at 10 µM (NCI-H460)	growth, % of control at 10 µM (M14)	growth, % of control at 10 µM (K562)	growth, % of control at 10 µM (LOX IMVI)	growth, % of control at 10 µM (Malme-3M)	inhibition in vivo at 50 mg/kg (Rattus norvegicus [3])	growth, % of control at 10 µM (U-251)	other results
[3H]N1C(=O)[C@@]2(c3ccccc31)N(C)C[C@@H](c1ccc(Cl)cc1)[C@@]21Cc2ccccc2C1=O	15.6%	107%	81.8%	62.7%	61.9%	36.6%	91%	87.5%	74.7%	144%	104%	27.9%	75.1%	94.7%	82.9%	58.5%	65.2%	120%	28.4%	87.7%	growth, % of control at 10 µM (OVCAR-4): 74.5%; growth, % of control at 10 µM (UACC-257): 34.5%; growth, % of control at 10 µM [4]: -4.92%; growth, % of control at 10 µM (MOLT-4): 57%; growth, % of control at 10 µM (SF-295): 31.4%; growth, % of control at 10 µM (MDA-MB-435): 95.1%; growth, % of control at 10 µM (EKVX): 52.5%; growth, % of control at 10 µM (HT-29): 73.8%; growth, % of control at 10 µM (COLO 205): 84.8%; growth, % of control at 10 µM (KM12): 81.2%; growth, % of control at 10 µM (786-0): 88.9%; growth, % of control at 10 µM (SN12C): 79.5%; growth, % of control at 10 µM (OVCAR-5): 93.2%; inhibition of growth at 10 µM (HOP-92): 50.2%; growth, % of control at 10 µM (NCI-H226): 73.7%; inhibition in vivo at 50 mg/kg (Rattus norvegicus [5]): 18.9%; growth, % of control at 10 µM (SW-620): 76.2%; growth, % of control at 10 µM (HCC 2998): 95.7%
[3H]C([3H])([3H])N1C(=O)[C@@]2(c3ccccc31)N(C)C[C@@H](c1ccc(Cl)cc1)[C@@]21Cc2ccccc2C1=O	8.5%	90.5%	75.8%	66.1%	82.3%	13.4%	86.6%	88.1%	108%	140%	106%	47.2%	79.3%	67.1%	76.6%	39.5%	72.2%	102%	36.3%	93.1%	growth, % of control at 10 µM (OVCAR-4): 72.5%; growth, % of control at 10 µM (UACC-257): 42.6%; growth, % of control at 10 µM [4]: 55.2%; growth, % of control at 10 µM (MOLT-4): 87.5%; growth, % of control at 10 µM (SF-295): 65%; growth, % of control at 10 µM (MDA-MB-435): 101%; growth, % of control at 10 µM (EKVX): 72.6%; growth, % of control at 10 µM (HT-29): 46.1%; growth, % of control at 10 µM (COLO 205): 70.5%; growth, % of control at 10 µM (KM12): 68.7%; growth, % of control at 10 µM (786-0): 86.2%; growth, % of control at 10 µM (SN12C): 86.5%; growth, % of control at 10 µM (OVCAR-5): 95.4%; inhibition of growth at 10 µM (HOP-92): 25.1%; growth, % of control at 10 µM (NCI-H226): 63.2%; inhibition in vivo at 50 mg/kg (Rattus norvegicus [5]): 9.4%; growth, % of control at 10 µM (SW-620): 67.8%; growth, % of control at 10 µM (HCC 2998): 88%

Reference: ChEMBL document CHEMBL1152855, “Regioselective synthesis of dispiro[1H-indene-2,3'-pyrrolidine-2',3''-[3H]indole]-1,2''(1''H)-diones of potential anti-tumor properties” (2009)
